Source: US7015196B1, “Basic monocyclic compounds having Nk2 antagonist action, processes for their preparation, and formulations containing them” (Menarini Ricerche S.p.A., priority 1999, dated 2006)

What was measured:
human NK2 receptor = target: T1, human NK2 receptor (Homo sapiens, UniProt P21452); test: binding test, [125I]NKA competition on membranes of CHO cells transfected with the NK2 receptor of human ileum; details: CHO cell membranes, [125I]NKA 100 pM, 30 min, 20° C.
T1 construct: expressed in transfected cells; host or cells: CHO cells (membranes)
T1 sequence (P21452 1-398): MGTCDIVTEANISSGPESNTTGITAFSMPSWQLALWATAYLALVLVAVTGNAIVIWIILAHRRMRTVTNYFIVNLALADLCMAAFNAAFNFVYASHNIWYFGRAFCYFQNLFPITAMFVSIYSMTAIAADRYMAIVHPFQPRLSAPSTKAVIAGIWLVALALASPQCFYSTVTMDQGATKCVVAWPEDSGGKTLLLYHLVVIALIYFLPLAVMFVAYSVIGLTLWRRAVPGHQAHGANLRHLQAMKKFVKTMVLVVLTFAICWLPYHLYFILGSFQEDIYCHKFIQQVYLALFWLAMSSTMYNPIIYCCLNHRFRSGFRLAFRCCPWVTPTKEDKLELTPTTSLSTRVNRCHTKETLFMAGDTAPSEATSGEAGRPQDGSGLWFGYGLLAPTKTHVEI
Protocol: (§1) The compounds described in the present invention act as antagonists to the NK2 receptor of tachykinins. The biological activity was evaluated in three in vitro functional tests, using rabbit pulmonary artery (RPA), hamster trachea (HT) and rat urinary bladder (RUB), according to the methods described by C. A. Maggi et al., Br. J. Pharmacol., 1990, 100, 588; P. D'Orleans-Juste et al., Eur. J. Pharmacol., 1986, 125, 37; and C. A. Maggi et al., J. Pharmacol. Exp. Ther., 1988, 246, 308. The affinity of the compounds for the human NK2 receptor was evaluated in a binding test using membranes of Chinese hamster ovary (CHO) cells transfected with the NK2 receptor of human ileum and the radioligand [^125I]NKA (Amersham, […] 2000 Ci/mmol) at the concentration of 100 pM in competition studies. The substances under examination were tested in a concentration range between 0.01 nM and […]. At the end of incubation (30 min, 20° C.) the test specimens were filtered, and radioactivity was determined using a gamma-counter.
(§2) The data emerging from the functional studies were expressed as pA2 (O. Arunlakshana and H. O. Shild, Br. J. Pharmacol. Chemother., 1959, 14, 45), and the data emerging from the binding studies were expressed as pKi (log Ki calculated with the LIGAND program; P. J. Munson et al., Anal. Biochem., 1980, 107, 220).

[1] = target: T2, NK2 receptor of tachykinins (Rattus norvegicus, UniProt P16610); test: in vitro functional test, rat urinary bladder (RUB); type: cell-based; details: for Kb: read-out: pA2 RUB (converted)
T2 construct: from tissue; host or cells: rat urinary bladder
T2 sequence (P16610 1-390): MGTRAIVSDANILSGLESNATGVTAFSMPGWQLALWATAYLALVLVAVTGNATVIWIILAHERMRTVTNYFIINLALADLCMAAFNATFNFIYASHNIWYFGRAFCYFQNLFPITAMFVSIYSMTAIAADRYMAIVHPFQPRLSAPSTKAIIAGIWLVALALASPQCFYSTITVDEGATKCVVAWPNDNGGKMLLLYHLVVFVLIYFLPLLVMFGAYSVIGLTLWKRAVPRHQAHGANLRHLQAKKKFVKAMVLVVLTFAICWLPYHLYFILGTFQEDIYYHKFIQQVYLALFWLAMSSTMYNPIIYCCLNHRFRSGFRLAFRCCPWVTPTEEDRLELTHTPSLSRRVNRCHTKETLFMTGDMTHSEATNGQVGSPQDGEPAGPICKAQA
Protocol: as §1, §2

[2] = target: T3, NK2 receptor of tachykinins (Oryctolagus cuniculus, UniProt P79218); test: in vitro functional test, rabbit pulmonary artery (RPA); type: cell-based; details: read-out: pA2 RPA (converted)
T3 construct: from tissue; host or cells: rabbit pulmonary artery
T3 sequence (P79218 1-384): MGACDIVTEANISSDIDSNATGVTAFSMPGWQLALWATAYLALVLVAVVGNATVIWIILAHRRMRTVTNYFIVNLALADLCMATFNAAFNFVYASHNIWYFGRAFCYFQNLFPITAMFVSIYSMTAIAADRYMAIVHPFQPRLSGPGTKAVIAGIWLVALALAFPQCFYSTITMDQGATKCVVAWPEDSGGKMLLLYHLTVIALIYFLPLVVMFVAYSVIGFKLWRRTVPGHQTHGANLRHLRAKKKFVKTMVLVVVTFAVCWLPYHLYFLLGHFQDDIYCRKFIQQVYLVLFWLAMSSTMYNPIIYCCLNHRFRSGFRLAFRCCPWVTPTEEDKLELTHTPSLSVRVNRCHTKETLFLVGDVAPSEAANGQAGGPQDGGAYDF
Protocol: as §1, §2

[3] = target: T4, NK2 receptor of tachykinins (Mesocricetus auratus, UniProt P51144); test: in vitro functional test, hamster trachea (HT); type: cell-based; details: read-out: pA2 HT (converted)
T4 construct: from tissue; host or cells: hamster trachea
T4 sequence (P51144 1-384): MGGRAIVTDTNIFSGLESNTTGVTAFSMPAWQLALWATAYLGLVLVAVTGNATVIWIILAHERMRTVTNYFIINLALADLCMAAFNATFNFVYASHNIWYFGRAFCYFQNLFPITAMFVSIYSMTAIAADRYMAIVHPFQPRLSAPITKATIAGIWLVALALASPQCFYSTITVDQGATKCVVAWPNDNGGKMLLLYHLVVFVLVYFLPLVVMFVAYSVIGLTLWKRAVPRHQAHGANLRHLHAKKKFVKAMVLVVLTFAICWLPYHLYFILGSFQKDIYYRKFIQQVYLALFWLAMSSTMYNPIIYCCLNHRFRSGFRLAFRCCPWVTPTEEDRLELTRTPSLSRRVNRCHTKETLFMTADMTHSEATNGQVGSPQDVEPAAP
Protocol: as §1, §2

Which Ki (human NK2 receptor) does the source give for `O=C1CC(C(=O)N2CCC(N3CCCCC3)CC2)C(=O)NCC(Cc2ccccc2)NC(=O)C(Cc2ccccc2)NC(=O)C(Cc2c[nH]c3ccccc23)N1` (single isomer, unassigned) [Example 7, cyclo{-Suc[1-(R or S)-(1,4′)-bipiperidinyl-1′-carbonyl]-Trp-Phe[(R)—NH—CH(CH2—C6H5)—CH2NH]-}] here?
The Ki was 0.0501 nM.

What about the Kb [1] of the same compound?
Its Kb is 0.794 nM.

`O=C1CC(C(=O)N2CCC(N3CCCCC3)CC2)C(=O)NCC(Cc2ccccc2)NC(=O)C(Cc2ccccc2)NC(=O)C(Cc2c[nH]c3ccccc23)N1` (single isomer, unassigned) [Example 8, cyclo{-Suc[1-(S or R)-(1,4′)-bipiperidinyl-1′-carbonyl]-Trp-Phe[(R)—NH—CH(CH2—C6H5)—CH2NH]-}] was tested. Which Ki (human NK2 receptor) did it give?
Its Ki is 0.316 nM.

Which results are given for `O=C1C[C@@H](NC(=O)CN2CCC(N3CCCCC3)CC2)C(=O)NC[C@@H](Cc2ccccc2)NC(=O)[C@H](Cc2ccccc2)NC(=O)[C@H](Cc2c[nH]c3ccccc23)N1` [Example 1, cyclo{-Suc[1-(R)-2(1,4′)-bipiperidinyl-1′-yl-acetyl amino]-Trp-Phe-[(R)—NH—CH(CH2—C6H5)—CH2NH]-}]?
pKi (human NK2 receptor): 9.4; Kb [2]: 2 nM; Kb [3]: 1.58 nM; Kb [1]: 0.631 nM

Which Ki (human NK2 receptor) does the source give for `O=C1C[C@@H](NC(=O)CN2CCC(N3CCOCC3)CC2)C(=O)NC[C@@H](Cc2ccccc2)NC(=O)[C@H](Cc2ccccc2)NC(=O)[C@H](Cc2c[nH]c3ccccc23)N1` [Example 2, cyclo{-Suc[1-(R)-2(4-morpholin-4-yl-piperidin-1-yl)-acetyl amino]-Trp-Phe-[(R)—NH—CH(CH2—C6H5)—CH2NH]-}] here?
Its Ki is 0.2 nM.

What about the Kb [1] of the same compound?
The Kb was 0.158 nM.

Which results are given for `O=C1C[C@@H](NC(=O)CN2CCC(N3CCCCC3)CC2)C(=O)NC(Cc2c[nH]c3ccccc23)C(=O)NC(Cc2ccc(F)cc2)C(=O)N[C@H](Cc2ccccc2)CN1` (stereo partly drawn) [Example 3, cyclo{-Suc[1-(R)-2(1,4′)-bipiperidinyl-1′-yl-acetyl amino]-Trp-Phe-(4-F)-[(R)—NH—CH(CH2—C6H5)—CH2NH]-}]?
pKi (human NK2 receptor): 9.6; pA2 RUB [1]: 9.3

Which pKi (human NK2 receptor) does the source give for `O=C1C[C@@H](NC(=O)CN2CCC(N3CCOCC3)CC2)C(=O)NC(Cc2c[nH]c3ccc(F)cc23)C(=O)NC(Cc2ccccc2)C(=O)N[C@H](Cc2ccccc2)CN1` (stereo partly drawn) [Example 4, cyclo{-Suc[1-(R)-2(4-morpholinyl-4-piperidinyl-1-yl-acetyl)amino]-Trp-(5-F)-Phe-[(R)-N H—CH(CH2—C6H5)—CH2NH]-}] here?
Its pKi is 10.1.

And the “pA2 RUB” value [1]?
Its value is 9.7.
